According to PubChem BioAssay AID330 (DTP/NCI, 2004):
Values joined by “and” are separate entries in the source; they are usually repeats but may differ in a detail not shown here. Identical values can stand only once. Toxic doses and inconclusive results are not listed. The calls were made as follows: active = survival T/C of 150% or more; inactive = T/C below 125% in these data. Peptide text beside a SMILES is read from it. * marks the point of attachment. For = O=C*

Tested on: P388 leukemia ip, CD2F1 mice, survival T/C
Test: NCI In Vivo Anticancer Drug Screen. Data for tumor model P388 Leukemia (intraperitoneal) in CD2F1 (CDF1) mice
Settings: endpoint: median survival time, higher = longer survival
In short: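 Mice carrying the transplanted tumor received test compound or vehicle. Survival was recorded in each group, and the value is the treated-group measurement divided by that of the vehicle-treated control group.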

[1] = dose: 7.5 mg/kg/injection, schedule: Q01DX005 (ip), vehicle: Klucel (hydroxypropylcellulose) (HPC)
[2] = dose: 25.0 mg/kg/injection, schedule: Q01DX009 (ip), vehicle: saline with Tween-80
[3] = dose: 50.0 mg/kg/injection, schedule: Q01DX009 (ip), vehicle: saline with Tween-80
[4] = dose: 100.0 mg/kg/injection, schedule: Q01DX009 (ip), vehicle: saline with Tween-80
[5] = dose: 100.0 mg/kg/injection, schedule: Q04DX003 (ip), vehicle: saline
[6] = dose: 200.0 mg/kg/injection, schedule: Q04DX003 (ip), vehicle: saline
[7] = dose: 400.0 mg/kg/injection, schedule: Q04DX003 (ip), vehicle: saline
[8] = dose: 25.0 mg/kg/injection, schedule: Q01DX009 (ip), vehicle: Klucel (hydroxypropylcellulose) (HPC)
[9] = dose: 50.0 mg/kg/injection, schedule: Q01DX009 (ip), vehicle: Klucel (hydroxypropylcellulose) (HPC)
[10] = dose: 100.0 mg/kg/injection, schedule: Q01DX009 (ip), vehicle: Klucel (hydroxypropylcellulose) (HPC)
[11] = dose: 50.0 mg/kg/injection, schedule: Q01DX005 (ip), vehicle: Klucel (hydroxypropylcellulose) (HPC)
[12] = dose: 100.0 mg/kg/injection, schedule: Q01DX005 (ip), vehicle: Klucel (hydroxypropylcellulose) (HPC)
[13] = dose: 200.0 mg/kg/injection, schedule: Q01DX005 (ip), vehicle: Klucel (hydroxypropylcellulose) (HPC)
[14] = dose: 200.0 mg/kg/injection, schedule: Q01DX009 (ip), vehicle: Klucel (hydroxypropylcellulose) (HPC)

Measured: T/C

Cc1ccc(C)n1-c1ccsc1C(=O)NNC(=O)C(Cl)Cl
inactive: [1] 100 % of control | dose: 15.0 mg/kg/injection, schedule: Q01DX005 (ip), vehicle: Klucel (hydroxypropylcellulose) (HPC) 106 % of control | dose: 30.0 mg/kg/injection, schedule: Q01DX005 (ip), vehicle: Klucel (hydroxypropylcellulose) (HPC) 99 % of control

Cn1c([N+](=O)[O-])cnc1-c1nc(/C=N/N2CCS(=O)(=O)CC2)cs1
inactive: [2] 96 % of control | [3] 96 % of control | [4] 90 % of control

CC(=O)N1CCCC2=C1CCCCCC2
inactive: dose: 12.5 mg/kg/injection, schedule: Q04DX003 (ip), vehicle: saline 99 % of control | dose: 25.0 mg/kg/injection, schedule: Q04DX003 (ip), vehicle: saline 104 % of control | dose: 50.0 mg/kg/injection, schedule: Q04DX003 (ip), vehicle: saline 104 % of control | [5] 117 % of control | [6] 101 % of control | [7] 100 % of control

CCn1c(=O)c2c(nc(Cl)n2C2OC(COC(C)=O)C(OC(C)=O)C(OC(C)=O)C2OC(C)=O)n(CC)c1=O (configuration not stated)
inactive: [8] 100 % of control | [9] 99 % of control | [10] 99 % of control

OC1=CC(=S)NC2CCCCC12 (configuration not stated)
inactive: [11] 86 % of control | [12] 102 % of control | [13] 102 % of control

OCCN1CCN(CCCN2c3ccccc3Sc3ccc(C(F)(F)F)cc32)CC1
inactive: dose: 7.5 mg/kg/injection, schedule: Q04DX003 (ip), vehicle: saline 111 % of control | dose: 15.0 mg/kg/injection, schedule: Q04DX003 (ip), vehicle: saline 120 % of control | dose: 60.0 mg/kg/injection, schedule: Q04DX003 (ip), vehicle: saline 123 % of control

N#CC1=C(C#N)SCCCS1
inactive: dose: 50.0 mg/kg/injection, schedule: Q01DX009 (ip), vehicle: saline 100 % of control | dose: 100.0 mg/kg/injection, schedule: Q01DX009 (ip), vehicle: saline 100 % of control | dose: 200.0 mg/kg/injection, schedule: Q01DX009 (ip), vehicle: saline 99 % of control

COC(=O)c1nn(-c2ccccc2)c(C(=O)OC)c1C(=O)OC
inactive: dose: 100.0 mg/kg/injection, schedule: Q01DX001 (ip), vehicle: saline with Tween-80 111 % of control | dose: 200.0 mg/kg/injection, schedule: Q01DX001 (ip), vehicle: saline with Tween-80 112 % of control | dose: 400.0 mg/kg/injection, schedule: Q01DX001 (ip), vehicle: saline with Tween-80 98 % of control

Nc1nc(Cl)c2nc(Cl)n(C3OC(CO)C(O)C3O)c2n1 (configuration not stated)
inactive: dose: 50.0 mg/kg/injection, schedule: Q04DX003 (ip), vehicle: saline with Tween-80 100 % of control | dose: 100.0 mg/kg/injection, schedule: Q04DX003 (ip), vehicle: saline with Tween-80 100 % of control | dose: 200.0 mg/kg/injection, schedule: Q04DX003 (ip), vehicle: saline with Tween-80 100 % of control | dose: 400.0 mg/kg/injection, schedule: Q04DX003 (ip), vehicle: saline with Tween-80 91 % of control

CC(=O)n1oc2c(Br)cc(Br)cc2c1=O
inactive: [11] 116 % of control | [12] 103 % of control | [13] 107 % of control

CN1CCC/C1=C/C(=O)c1ccc(Cl)cc1
inactive: [5] 102 % of control and 98 % of control | [6] 111 % of control and 120 % of control | [7] 92 % of control

CCOC(=O)c1nc(C)nc(N)c1C
inactive: dose: 12.5 mg/kg/injection, schedule: Q01DX009 (ip), vehicle: water 102 % of control | dose: 25.0 mg/kg/injection, schedule: Q01DX009 (ip), vehicle: water 91 % of control | dose: 50.0 mg/kg/injection, schedule: Q01DX009 (ip), vehicle: water 93 % of control | dose: 100.0 mg/kg/injection, schedule: Q01DX009 (ip), vehicle: water 100 % of control | dose: 200.0 mg/kg/injection, schedule: Q01DX009 (ip), vehicle: water 100 % of control

O=[N+]([O-])c1cccc2ccc(N/N=C/c3ccccc3O)nc12
inactive: [9] 94 % of control | [3] 86 % of control | [10] 87 % of control and 91 % of control | [4] 93 % of control | dose: 200.0 mg/kg/injection, schedule: Q01DX009 (ip), vehicle: saline with Tween-80 88 % of control | dose: 400.0 mg/kg/injection, schedule: Q01DX009 (ip), vehicle: saline with Tween-80 89 % of control

CCOC(=O)CCC(=O)Oc1ccc2c(c1)C(=O)c1ccc(OC(=O)CCC(=O)OCC)cc1C2=O
inactive: dose: 1.87 mg/kg/injection, schedule: Q01DX005 (ip), vehicle: Klucel (hydroxypropylcellulose) (HPC) 99 % of control | dose: 3.75 mg/kg/injection, schedule: Q01DX005 (ip), vehicle: Klucel (hydroxypropylcellulose) (HPC) 99 % of control | [1] 99 % of control and 91 % of control

COc1ccc(C2c3cc4c(cc3OC(C)(O)C2C)OCO4)c(OC)c1OC (configuration not stated)
inactive: dose: 100.0 mg/kg/injection, schedule: Q04DX002 (ip), vehicle: saline with Tween-80 100 % of control | dose: 200.0 mg/kg/injection, schedule: Q04DX002 (ip), vehicle: saline with Tween-80 96 % of control | dose: 400.0 mg/kg/injection, schedule: Q04DX002 (ip), vehicle: saline with Tween-80 86 % of control

Cc1cc(=O)n2c([nH]c3ccccc32)c1N=Nc1ccccc1
inactive: [11] 93 % of control | [12] 92 % of control | [13] 100 % of control

O=[N+]([O-])c1ccc(S(=O)(=O)C/C=C/CCl)c([N+](=O)[O-])c1
inactive: dose: 12.5 mg/kg/injection, schedule: Q01DX009 (ip), vehicle: saline with Tween-80 113 % of control | [2] 90 % of control

CN1C(=O)C(=O)N(Cc2ccc(CN3C(=O)C(=O)N(C)C3=O)cc2)C1=O
inactive: [9] 101 % of control | [10] 103 % of control | [14] 100 % of control

C=CCC1(C(C)C(O)c2cc(OC)c(OC)c(OC)c2)CC(O)C=CC12OCCO2 (configuration not stated)
inactive: dose: 1.25 mg/kg/injection, schedule: Q01DX005 (ip), vehicle: acid diluted with saline 94 % of control | dose: 2.5 mg/kg/injection, schedule: Q01DX005 (ip), vehicle: acid diluted with saline 103 % of control | dose: 5.0 mg/kg/injection, schedule: Q01DX005 (ip), vehicle: acid diluted with saline 100 % of control | dose: 10.0 mg/kg/injection, schedule: Q01DX005 (ip), vehicle: acid diluted with saline 100 % of control

CC1=CC2(C)C3C(=O)NC(=O)C3C1C1(C)C3C(=O)NC(=O)C3C21 (configuration not stated)
inactive: [8] 103 % of control | [9] 108 % of control | [10] 109 % of control | [14] 97 % of control

O=c1[nH]cnc2cc(N3CCN(Cc4ccccc4)CC3)c([N+](=O)[O-])cc12
inactive: dose: 100.0 mg/kg/injection, schedule: Q04DX003 (ip), vehicle: Klucel (hydroxypropylcellulose) (HPC) 102 % of control | dose: 200.0 mg/kg/injection, schedule: Q04DX003 (ip), vehicle: Klucel (hydroxypropylcellulose) (HPC) 98 % of control | dose: 400.0 mg/kg/injection, schedule: Q04DX003 (ip), vehicle: Klucel (hydroxypropylcellulose) (HPC) 106 % of control

CS(=O)(=O)OCC(COS(C)(=O)=O)(COS(C)(=O)=O)COS(C)(=O)=O
inactive: [9] 93 % of control | [10] 99 % of control | [14] 94 % of control

CSCCC(NC=O)C(=O)NC(C(=O)O)C(C)C (stereo not drawn) (For-Met-Val-OH; configuration not given here)
inactive: [11] 101 % of control | [12] 97 % of control | [13] 101 % of control

COc1cc(C=Nc2cc(Cl)c(Cl)c(Cl)c2)ccc1N(CCCl)CCCl
inactive: dose: 0.79 mg/kg/injection, schedule: Q01DX009 (ip), vehicle: Klucel (hydroxypropylcellulose) (HPC) 105 % of control

CC1=C[C@@H]2c3cccc4c3c(cn4C)C[C@H]2N(C)C1
inactive: dose: 50.0 mg/kg/injection, schedule: Q01DX005 (ip), vehicle: saline with Tween-80 99 % of control | dose: 100.0 mg/kg/injection, schedule: Q01DX005 (ip), vehicle: saline with Tween-80 100 % of control

COC1=CC(=O)C2CC=C(C)C3CC(=O)OC1C23C (configuration not stated)
inactive: dose: 100.0 mg/kg/injection, schedule: Q04DX002 (ip), vehicle: Klucel (hydroxypropylcellulose) (HPC) 100 % of control | dose: 200.0 mg/kg/injection, schedule: Q04DX002 (ip), vehicle: Klucel (hydroxypropylcellulose) (HPC) 95 % of control | dose: 400.0 mg/kg/injection, schedule: Q04DX002 (ip), vehicle: Klucel (hydroxypropylcellulose) (HPC) 98 % of control

C[n+]1ccc2ccccc2c1SC1CCC2CC3CC2C1C3 (configuration not stated)
inactive: dose: 7.5 mg/kg/injection, schedule: Q01DX005 (ip), vehicle: saline with Tween-80 106 % of control | dose: 15.0 mg/kg/injection, schedule: Q01DX005 (ip), vehicle: saline with Tween-80 110 % of control
